In ChEMBL document CHEMBL2346657, “Synthesis of novel 2-amino-4-(5'-substituted 2'-phenyl-1H-indol-3'-yl)-6-aryl-4H-pyran-3-carbonitrile derivatives as antimicrobial and antioxidant agents” (2013):
Activity calls are given as the source filed them. How the calls were made is not given here.

tested on: not listed separately; assay: Antioxidant activity assessed as metal chelating activity by measuring inhibition of ferrozine-Fe2+ complex formation at 25 to 100 ug/ml; type: functional; settings: not given

Row | Compound | Activity
1 | N#CC1=C(N)OC(c2ccccc2)=CC1c1c(-c2ccccc2)[nH]c2ccc(Cl)cc12 (stereo not given) | Active
2 | Cc1ccc(C2=CC(c3c(-c4ccccc4)[nH]c4ccc(C)cc34)C(C#N)=C(N)O2)cc1 (stereo not given) | Active

tested on: Aspergillus flavus; assay: Antimicrobial activity against Aspergillus flavus MTCC 1973 at 500 ug/ml after 72 hrs by cup plate method; type: functional; settings: MTCC 1973, 72 h, read-out: IZ

Row | Compound | zone of inhibition at 500 µg/mL
3 | N#CC1=C(N)OC(c2ccccc2)=CC1c1c(-c2ccccc2)[nH]c2ccc(Cl)cc12 (stereo not given) | 3 mm
4 | Cc1ccc(C2=CC(c3c(-c4ccccc4)[nH]c4ccc(C)cc34)C(C#N)=C(N)O2)cc1 (stereo not given) | 0 mm

tested on: Aspergillus flavus; assay: Antimicrobial activity against Aspergillus flavus MTCC 1973 at 750 ug/ml after 72 hrs by cup plate method; type: functional; settings: MTCC 1973, 72 h, read-out: IZ

Row | Compound | zone of inhibition at 750 µg/mL
5 | N#CC1=C(N)OC(c2ccccc2)=CC1c1c(-c2ccccc2)[nH]c2ccc(Cl)cc12 (stereo not given) | 3 mm
6 | Cc1ccc(C2=CC(c3c(-c4ccccc4)[nH]c4ccc(C)cc34)C(C#N)=C(N)O2)cc1 (stereo not given) | 0 mm

tested on: Aspergillus flavus; assay: Antimicrobial activity against Aspergillus flavus MTCC 1973 at 1000 ug/ml after 72 hrs by cup plate method; type: functional; settings: MTCC 1973, 72 h, read-out: IZ

Row | Compound | zone of inhibition at 1000 µg/mL
7 | N#CC1=C(N)OC(c2ccccc2)=CC1c1c(-c2ccccc2)[nH]c2ccc(Cl)cc12 (stereo not given) | 3 mm
8 | Cc1ccc(C2=CC(c3c(-c4ccccc4)[nH]c4ccc(C)cc34)C(C#N)=C(N)O2)cc1 (stereo not given) | 0 mm

tested on: Aspergillus terreus; assay: Antimicrobial activity against Aspergillus terreus MTCC 1782 at 500 ug/ml after 72 hrs by cup plate method; type: functional; settings: MTCC 1782, 72 h, read-out: IZ

Row | Compound | zone of inhibition at 500 µg/mL
9 | N#CC1=C(N)OC(c2ccccc2)=CC1c1c(-c2ccccc2)[nH]c2ccc(Cl)cc12 (stereo not given) | 9 mm
10 | Cc1ccc(C2=CC(c3c(-c4ccccc4)[nH]c4ccc(C)cc34)C(C#N)=C(N)O2)cc1 (stereo not given) | 0 mm

tested on: Aspergillus terreus; assay: Antimicrobial activity against Aspergillus terreus MTCC 1782 at 750 ug/ml after 72 hrs by cup plate method; type: functional; settings: MTCC 1782, 72 h, read-out: IZ

Row | Compound | zone of inhibition at 750 µg/mL
11 | N#CC1=C(N)OC(c2ccccc2)=CC1c1c(-c2ccccc2)[nH]c2ccc(Cl)cc12 (stereo not given) | 8 mm
12 | Cc1ccc(C2=CC(c3c(-c4ccccc4)[nH]c4ccc(C)cc34)C(C#N)=C(N)O2)cc1 (stereo not given) | 9 mm

tested on: Aspergillus terreus; assay: Antimicrobial activity against Aspergillus terreus MTCC 1782 at 1000 ug/ml after 72 hrs by cup plate method; type: functional; settings: MTCC 1782, 72 h, read-out: IZ

Row | Compound | zone of inhibition at 1000 µg/mL
13 | N#CC1=C(N)OC(c2ccccc2)=CC1c1c(-c2ccccc2)[nH]c2ccc(Cl)cc12 (stereo not given) | 8 mm
14 | Cc1ccc(C2=CC(c3c(-c4ccccc4)[nH]c4ccc(C)cc34)C(C#N)=C(N)O2)cc1 (stereo not given) | 9 mm

tested on: Aspergillus oryzae; assay: Antimicrobial activity against Aspergillus oryzae MTCC 3567 at 500 ug/ml after 72 hrs by cup plate method; type: functional; settings: MTCC 3567, 72 h, read-out: IZ

Row | Compound | zone of inhibition at 500 µg/mL
15 | N#CC1=C(N)OC(c2ccccc2)=CC1c1c(-c2ccccc2)[nH]c2ccc(Cl)cc12 (stereo not given) | 8 mm
16 | Cc1ccc(C2=CC(c3c(-c4ccccc4)[nH]c4ccc(C)cc34)C(C#N)=C(N)O2)cc1 (stereo not given) | 12 mm

tested on: Aspergillus oryzae; assay: Antimicrobial activity against Aspergillus oryzae MTCC 3567 at 750 ug/ml after 72 hrs by cup plate method; type: functional; settings: MTCC 3567, 72 h, read-out: IZ

Row | Compound | zone of inhibition at 750 µg/mL
17 | N#CC1=C(N)OC(c2ccccc2)=CC1c1c(-c2ccccc2)[nH]c2ccc(Cl)cc12 (stereo not given) | 3 mm
18 | Cc1ccc(C2=CC(c3c(-c4ccccc4)[nH]c4ccc(C)cc34)C(C#N)=C(N)O2)cc1 (stereo not given) | 13 mm

tested on: Aspergillus oryzae; assay: Antimicrobial activity against Aspergillus oryzae MTCC 3567 at 1000 ug/ml after 72 hrs by cup plate method; type: functional; settings: MTCC 3567, 72 h, read-out: IZ

Row | Compound | zone of inhibition at 1000 µg/mL
19 | N#CC1=C(N)OC(c2ccccc2)=CC1c1c(-c2ccccc2)[nH]c2ccc(Cl)cc12 (stereo not given) | 3 mm
20 | Cc1ccc(C2=CC(c3c(-c4ccccc4)[nH]c4ccc(C)cc34)C(C#N)=C(N)O2)cc1 (stereo not given) | 13 mm

tested on: Aspergillus niger; assay: Antimicrobial activity against Aspergillus niger MTCC 281 at 500 ug/ml after 72 hrs by cup plate method; type: functional; settings: MTCC 281, 72 h, read-out: IZ

Row | Compound | zone of inhibition at 500 µg/mL
21 | N#CC1=C(N)OC(c2ccccc2)=CC1c1c(-c2ccccc2)[nH]c2ccc(Cl)cc12 (stereo not given) | 8 mm
22 | Cc1ccc(C2=CC(c3c(-c4ccccc4)[nH]c4ccc(C)cc34)C(C#N)=C(N)O2)cc1 (stereo not given) | 0 mm

tested on: Aspergillus niger; assay: Antimicrobial activity against Aspergillus niger MTCC 281 at 750 ug/ml after 72 hrs by cup plate method; type: functional; settings: MTCC 281, 72 h, read-out: IZ

Row | Compound | zone of inhibition at 750 µg/mL
23 | N#CC1=C(N)OC(c2ccccc2)=CC1c1c(-c2ccccc2)[nH]c2ccc(Cl)cc12 (stereo not given) | 9 mm
24 | Cc1ccc(C2=CC(c3c(-c4ccccc4)[nH]c4ccc(C)cc34)C(C#N)=C(N)O2)cc1 (stereo not given) | 0 mm

tested on: Aspergillus niger; assay: Antimicrobial activity against Aspergillus niger MTCC 281 at 1000 ug/ml after 72 hrs by cup plate method; type: functional; settings: MTCC 281, 72 h, read-out: IZ

Row | Compound | zone of inhibition at 1000 µg/mL
25 | N#CC1=C(N)OC(c2ccccc2)=CC1c1c(-c2ccccc2)[nH]c2ccc(Cl)cc12 (stereo not given) | 10 mm
26 | Cc1ccc(C2=CC(c3c(-c4ccccc4)[nH]c4ccc(C)cc34)C(C#N)=C(N)O2)cc1 (stereo not given) | 0 mm

tested on: Pseudomonas aeruginosa; assay: Antimicrobial activity against Pseudomonas aeruginosa MTCC 1688 at 500 ug/ml after 24 hrs by cup plate method; type: functional; settings: MTCC 1688, 24 h, read-out: IZ

Row | Compound | zone of inhibition at 500 µg/mL
27 | N#CC1=C(N)OC(c2ccccc2)=CC1c1c(-c2ccccc2)[nH]c2ccc(Cl)cc12 (stereo not given) | 12 mm
28 | Cc1ccc(C2=CC(c3c(-c4ccccc4)[nH]c4ccc(C)cc34)C(C#N)=C(N)O2)cc1 (stereo not given) | 10 mm

tested on: Pseudomonas aeruginosa; assay: Antimicrobial activity against Pseudomonas aeruginosa MTCC 1688 at 750 ug/ml after 24 hrs by cup plate method; type: functional; settings: MTCC 1688, 24 h, read-out: IZ

Row | Compound | zone of inhibition at 750 µg/mL
29 | N#CC1=C(N)OC(c2ccccc2)=CC1c1c(-c2ccccc2)[nH]c2ccc(Cl)cc12 (stereo not given) | 12 mm
30 | Cc1ccc(C2=CC(c3c(-c4ccccc4)[nH]c4ccc(C)cc34)C(C#N)=C(N)O2)cc1 (stereo not given) | 10 mm

tested on: Pseudomonas aeruginosa; assay: Antimicrobial activity against Pseudomonas aeruginosa MTCC 1688 at 1000 ug/ml after 24 hrs by cup plate method; type: functional; settings: MTCC 1688, 24 h, read-out: IZ

Row | Compound | zone of inhibition at 1000 µg/mL
31 | N#CC1=C(N)OC(c2ccccc2)=CC1c1c(-c2ccccc2)[nH]c2ccc(Cl)cc12 (stereo not given) | 13 mm
32 | Cc1ccc(C2=CC(c3c(-c4ccccc4)[nH]c4ccc(C)cc34)C(C#N)=C(N)O2)cc1 (stereo not given) | 8 mm

tested on: Klebsiella pneumoniae; assay: Antimicrobial activity against Klebsiella pneumoniae NCTC 13368 at 500 ug/ml after 24 hrs by cup plate method; type: functional; settings: NCTC 13368, 24 h, read-out: IZ

Row | Compound | zone of inhibition at 500 µg/mL
33 | N#CC1=C(N)OC(c2ccccc2)=CC1c1c(-c2ccccc2)[nH]c2ccc(Cl)cc12 (stereo not given) | 10 mm
34 | Cc1ccc(C2=CC(c3c(-c4ccccc4)[nH]c4ccc(C)cc34)C(C#N)=C(N)O2)cc1 (stereo not given) | 9 mm

tested on: Klebsiella pneumoniae; assay: Antimicrobial activity against Klebsiella pneumoniae NCTC 13368 at 750 ug/ml after 24 hrs by cup plate method; type: functional; settings: NCTC 13368, 24 h, read-out: IZ

Row | Compound | zone of inhibition at 750 µg/mL
35 | N#CC1=C(N)OC(c2ccccc2)=CC1c1c(-c2ccccc2)[nH]c2ccc(Cl)cc12 (stereo not given) | 10 mm
36 | Cc1ccc(C2=CC(c3c(-c4ccccc4)[nH]c4ccc(C)cc34)C(C#N)=C(N)O2)cc1 (stereo not given) | 9 mm

tested on: Klebsiella pneumoniae; assay: Antimicrobial activity against Klebsiella pneumoniae NCTC 13368 at 1000 ug/ml after 24 hrs by cup plate method; type: functional; settings: NCTC 13368, 24 h, read-out: IZ

Row | Compound | zone of inhibition at 1000 µg/mL
37 | N#CC1=C(N)OC(c2ccccc2)=CC1c1c(-c2ccccc2)[nH]c2ccc(Cl)cc12 (stereo not given) | 10 mm
38 | Cc1ccc(C2=CC(c3c(-c4ccccc4)[nH]c4ccc(C)cc34)C(C#N)=C(N)O2)cc1 (stereo not given) | 9 mm

tested on: Staphylococcus aureus; assay: Antimicrobial activity against Staphylococcus aureus ATCC 29513 at 500 ug/ml after 24 hrs by cup plate method; type: functional; settings: ATCC 29513, 24 h, read-out: IZ

Row | Compound | zone of inhibition at 500 µg/mL
39 | N#CC1=C(N)OC(c2ccccc2)=CC1c1c(-c2ccccc2)[nH]c2ccc(Cl)cc12 (stereo not given) | 10 mm
40 | Cc1ccc(C2=CC(c3c(-c4ccccc4)[nH]c4ccc(C)cc34)C(C#N)=C(N)O2)cc1 (stereo not given) | 14 mm

tested on: Staphylococcus aureus; assay: Antimicrobial activity against Staphylococcus aureus ATCC 29513 at 750 ug/ml after 24 hrs by cup plate method; type: functional; settings: ATCC 29513, 24 h, read-out: IZ

Row | Compound | zone of inhibition at 750 µg/mL
41 | N#CC1=C(N)OC(c2ccccc2)=CC1c1c(-c2ccccc2)[nH]c2ccc(Cl)cc12 (stereo not given) | 9 mm
42 | Cc1ccc(C2=CC(c3c(-c4ccccc4)[nH]c4ccc(C)cc34)C(C#N)=C(N)O2)cc1 (stereo not given) | 14 mm

tested on: Staphylococcus aureus; assay: Antimicrobial activity against Staphylococcus aureus ATCC 29513 at 1000 ug/ml after 24 hrs by cup plate method; type: functional; settings: ATCC 29513, 24 h, read-out: IZ

Row | Compound | zone of inhibition at 1000 µg/mL
43 | N#CC1=C(N)OC(c2ccccc2)=CC1c1c(-c2ccccc2)[nH]c2ccc(Cl)cc12 (stereo not given) | 9 mm
44 | Cc1ccc(C2=CC(c3c(-c4ccccc4)[nH]c4ccc(C)cc34)C(C#N)=C(N)O2)cc1 (stereo not given) | 14 mm

tested on: Escherichia coli; assay: Antimicrobial activity against Escherichia coli MTCC 723 at 500 ug/ml after 24 hrs by cup plate method; type: functional; settings: MTCC 723, 24 h, read-out: IZ

Row | Compound | zone of inhibition at 500 µg/mL
45 | N#CC1=C(N)OC(c2ccccc2)=CC1c1c(-c2ccccc2)[nH]c2ccc(Cl)cc12 (stereo not given) | 10 mm
46 | Cc1ccc(C2=CC(c3c(-c4ccccc4)[nH]c4ccc(C)cc34)C(C#N)=C(N)O2)cc1 (stereo not given) | 8 mm

tested on: Escherichia coli; assay: Antimicrobial activity against Escherichia coli MTCC 723 at 750 ug/ml after 24 hrs by cup plate method; type: functional; settings: MTCC 723, 24 h, read-out: IZ

Row | Compound | zone of inhibition at 750 µg/mL
47 | N#CC1=C(N)OC(c2ccccc2)=CC1c1c(-c2ccccc2)[nH]c2ccc(Cl)cc12 (stereo not given) | 10 mm
48 | Cc1ccc(C2=CC(c3c(-c4ccccc4)[nH]c4ccc(C)cc34)C(C#N)=C(N)O2)cc1 (stereo not given) | 4 mm

tested on: Escherichia coli; assay: Antimicrobial activity against Escherichia coli MTCC 723 at 1000 ug/ml after 24 hrs by cup plate method; type: functional; settings: MTCC 723, 24 h, read-out: IZ

Row | Compound | zone of inhibition at 1000 µg/mL
49 | N#CC1=C(N)OC(c2ccccc2)=CC1c1c(-c2ccccc2)[nH]c2ccc(Cl)cc12 (stereo not given) | 10 mm
50 | Cc1ccc(C2=CC(c3c(-c4ccccc4)[nH]c4ccc(C)cc34)C(C#N)=C(N)O2)cc1 (stereo not given) | 3 mm
